Drawing on patent publication US9586959B2, “Substituted tricyclic heterocycles as histamine 4 receptor inhibitors” (C&C RESEARCH LABORATORIES, priority 2011, dated 2017), this text covers IC50 for 37 compounds.

Counter-ions that a name gives are not always drawn. Bounds are passed on as bounds.

This test deals with human histamine 3 receptor (hH3R) (Homo sapiens (Human), UniProt Q9Y5N1). Put plainly: Binding affinity of human histamine 3 receptor (hH3R), [3H] labeled N-α-methylhistamine displacement. The following applies: hH3R-overexpressed cell membrane, [3H] N-α-methylhistamine. The method, then: 10 μL of the prepared compound solution was allocated in each well of a 96-well plate, and then 10 μL of 200 μM (R)(−)-α-methylhistamine (RaMH) diluted with analysis buffer and 1% of DMSO were transferred to each well to calculate non-specific binding and total binding degree. 15 μg of human histamine 3 receptor-overexpressed cell membrane (PerkinElmer) was diluted with 180 μL of analysis buffer solution (50 mM tris-HCl pH 7.4, 5 mM MgCl2), and that was transferred to each well. [^3H] labeled Na-methylhistamine (PerkinElmer) was diluted into […], 10 μL of that was added to each well, and then it was kept in a 27° C. incubator for 30 minutes. After the reaction, 200 μL of the mixture was transferred to a glass fiber plate in which 0.5% polyethylene amine was presoaked, and then non-binding [^3H] labeled Na-methylhistamine was removed in vacuum. After 5 times washing with 200 μL of washing buffer solution (50 mM tris-HCl, pH 7.4), the plate was dried in a 37° C. oven for 18 hours. 100 μL of betascint cocktail solution was added to each well, and after 1 hour CPM of [^3H] labeled N-α-methylhistamine was measured by using Wallac beta-counter TriLux. The binding affinity (IC50) of the human histamine 3 receptor for the present invention was analyzed by an Excel program, and the results of analysis are shown in Table 2.
Chain of human histamine 3 receptor (hH3R) (Q9Y5N1 whole entry): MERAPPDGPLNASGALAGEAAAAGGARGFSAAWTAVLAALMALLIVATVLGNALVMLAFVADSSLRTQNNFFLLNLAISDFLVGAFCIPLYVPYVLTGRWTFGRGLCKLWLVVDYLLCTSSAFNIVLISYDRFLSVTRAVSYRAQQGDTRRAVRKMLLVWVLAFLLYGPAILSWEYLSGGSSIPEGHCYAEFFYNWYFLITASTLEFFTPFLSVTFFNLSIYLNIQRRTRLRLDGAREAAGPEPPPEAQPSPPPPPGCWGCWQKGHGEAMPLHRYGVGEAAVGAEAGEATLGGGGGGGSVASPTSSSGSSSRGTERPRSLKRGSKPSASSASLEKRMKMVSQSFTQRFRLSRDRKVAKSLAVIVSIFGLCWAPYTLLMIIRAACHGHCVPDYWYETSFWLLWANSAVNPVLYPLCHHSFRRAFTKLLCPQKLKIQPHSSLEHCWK
Turning to `Cc1cnc2c(c1)nc(N1CCN(C)CC1)c1nncn12` [Compound 1, 3-Methyl-6-(4-methylpiperazin-1-yl)pyrido[3,2-e][1,2,4]triazolo[4,3-a]pyrazine], the IC50 (commonly the concentration that gives 50% inhibition) is above 100 µM.

With `CN1CCN(c2nc3ncccc3n3cnnc23)CC1` [Compound 3, 4-(4-Methylpiperazin-1-yl)pyrido[2,3-e][1,2,4]triazolo[4,3-a]pyrazine], the IC50 is above 100 µM.

Take `CN1CCN(c2nc3cc(Cl)cnc3n3cnnc23)CC1` [Compound 5, 3-Chloro-6-(4-methylpiperazin-1-yl)pyrido[3,2-e][1,2,4]triazolo[4,3-a]pyrazine]: the half-maximal inhibitory concentration (IC50) is above 100 µM.

Regarding `CN1CCN(c2nc3cccnc3n3cnnc23)CC1` [Compound 6, 6-(4-Methylpiperazin-1-yl)pyrido[3,2-e][1,2,4]triazolo[4,3-a]pyrazine], the half-inhibitory concentration (IC50) was above 100 µM.

The compound `NC1CN(c2nc3ncc(Cl)cc3n3cnnc23)C1` [Compound 8, 1-(8-Chloropyrido[2,3-e][1,2,4]triazolo[4,3-a]pyrazin-4-yl)azetidin-3-amine] came in with an IC50 above 100 µM.

`CN(C)[C@@H]1CCN(c2nc3ncc(Cl)cc3n3cnnc23)C1` [Compound 9, (R)-1-(8-chloropyrido[2,3-e][1,2,4]triazolo[4,3-a]pyrazin-4-yl)-N,N-dimethylpyrrolidin-3-amine] had an IC50 above 100 µM.

In the case of `CN[C@@H]1CCN(c2nc3ncc(Cl)cc3n3cnnc23)C1` [Compound 10, (R)-1-(8-chloropyrido[2,3-e][1,2,4]triazolo[4,3-a]pyrazin-4-yl)-N-methylpyrrolidin-3-amine], the IC50 is above 100 µM.

In the case of `CN[C@@H]1CCN(c2nc3cc(Cl)cnc3n3cnnc23)C1` [Compound 11, (R)-1-(3-chloropyrido[3,2-e][1,2,4]triazolo[4,3-a]pyrazin-6-yl)-N-methylpyrrolidin-3-amine], the 50% inhibitory concentration (IC50) was above 100 µM.

Compound `Cc1nnc2c(N3CCN(C)CC3)nc3ncc(Cl)cc3n12` [Compound 14, 8-Chloro-1-methyl-4-(4-methylpiperazin-1-yl)pyrido[2,3-e][1,2,4]triazolo[4,3-a]pyrazine] yielded a concentration for half-maximal inhibition (IC50) above 100 µM.

Compound `Cc1nnc2c(N3CCNCC3)nc3ncc(Cl)cc3n12` [Compound 15, 8-Chloro-1-methyl-4-(piperazin-1-yl)pyrido[2,3-e][1,2,4]triazolo[4,3-a]pyrazine] came in with a 50% inhibitory concentration (IC50) above 100 µM.

The compound `CC1CN(c2nc3ncc(Cl)cc3n3cnnc23)CC(C)N1C` (stereo not shown) [Compound 22, 8-Chloro-4-(3,4,5-trimethylpiperazin-1-yl)pyrido[2,3-e][1,2,4]triazolo[4,3-a]pyrazine] displayed an IC50 above 100 µM.

Regarding `N[C@@H]1CCN(c2nc3ncc(Cl)cc3n3cnnc23)C1` [Compound 30, (R)-1-(8-chloropyrido[2,3-e][1,2,4]triazolo[4,3-a]pyrazin-4-yl)pyrrolidin-3-amine], the IC50 was above 100 µM.

`CNC1CN(c2nc3ncc(Cl)cc3c3nc(C)nn23)C1` [Compound 33, 1-(9-Chloro-2-methylpyrido[3,2-e][1,2,4]triazolo[1,5-c]pyrimidin-5-yl)-N-methylazetidin-3-amine]: the IC50 was above 100 µM.

For `CNC1CN(c2nc3ncc(Cl)cc3c3ncnn23)C1` [Compound 36, 1-(9-Chloropyrido[3,2-e][1,2,4]triazolo[1,5-c]pyrimidin-5-yl)-N-methylazetidin-3-amine], the half-maximal inhibitory concentration (IC50) was above 100 µM.

In turn, `Clc1cnc2nc(N3CCNCC3)n3ncnc3c2c1` [Compound 37, 9-Chloro-5-(piperazin-1-yl)pyrido[3,2-e][1,2,4]triazolo[1,5-c]pyrimidine] returned an IC50 above 100 µM.

Consider `COCc1nc2c3cc(Cl)cnc3nc(N3CCN(C)CC3)n2n1` [Compound 40, 9-Chloro-2-(methoxymethyl)-5-(4-methylpiperazin-1-yl)pyrido[3,2-e][1,2,4]triazolo[1,5-c]pyrimidine], for which the concentration for half-maximal inhibition (IC50) was above 100 µM.

In the case of `CCc1nc2c3cc(Cl)cnc3nc(N3CCN(C)CC3)n2n1` [Compound 41, 9-Chloro-2-ethyl-5-(4-methylpiperazin-1-yl)pyrido[3,2-e][1,2,4]triazolo[1,5-c]pyrimidine], the IC50 was above 100 µM.

`CNC1CN(c2nc3ncc(Cl)cc3c3cn(C)nc23)C1` [Compound 44, 1-(8-Chloro-2-methyl-2H-pyrazolo[3,4-c][1,8]naphthylidine-4-yl)-N-methylazetidin-3-amine] showed a half-maximal inhibitory concentration (IC50) above 100 µM.

`CCc1cnc2nc(N3CC(NC)C3)c3nncn3c2c1` [Compound 56, 1-(8-Ethylpyrido[2,3-e][1,2,4]triazolo[4,3-a]pyrazin-4-yl)-N-methylazetidin-3-amine] returned an IC50 above 100 µM.

In turn, `CNC1CN(c2nc3ncc(O)cc3n3cnnc23)C1` [Compound 57, 4-(3-(Methylamino)azetidin-1-yl)pyrido[2,3-e][1,2,4]triazolo[4,3-a]pyrazin-8-ol] had an IC50 above 100 µM.

Regarding `COc1nc2nc(N3CCNCC3)c3nncn3c2cc1Cl` [Compound 61, 8-Chloro-7-methoxy-4-(piperazin-1-yl)pyrido[2,3-e][1,2,4]triazolo[4,3-a]pyrazine], the IC50 was above 100 µM.

Regarding `CN1CC2CN(c3nc4ncc(Cl)cc4n4cnnc34)CC2C1` (stereo not shown) [Compound 70, 8-Chloro-4-(5-methylhexahydropyrrolo[3,4-c]pyrrole-2(1H)-yl)pyrido[2,3-e][1,2,4]triazolo[4,3-a]pyrazine], the half-maximal inhibitory concentration (IC50) was above 100 µM.

As for `CN1CC2CN(c3nc4ncc(Br)cc4n4cnnc34)CC2C1` (stereo not shown) [Compound 71, 8-Bromo-4-(5-methylhexahydropyrrolo[3,4-c]pyrrole-2(1H)-yl)pyrido[2,3-e][1,2,4]triazolo[4,3-a]pyrazine], the IC50 was above 100 µM.

`CC1(N)CN(c2nc3ncc(Br)cc3n3cnnc23)C1` [Compound 72, 1-(8-Bromopyrido[2,3-e][1,2,4]triazolo[4,3-a]pyrazin-4-yl)-3-methylazetidin-3-amine] came in with an IC50 above 100 µM.

Consider `CNC1(C)CN(c2nc3ncc(Br)cc3n3cnnc23)C1` [Compound 73, 1-(8-Bromopyrido[2,3-e][1,2,4]triazolo[4,3-a]pyrazin-4-yl)-N,3-dimethylazetidin-3-amine], for which the IC50 was above 100 µM.

`Clc1cnc2nc(N3CCN(C4CC4)CC3)c3nncn3c2c1` [Compound 76, 8-Chloro-4-(4-cyclopropylpiperazin-1-yl)pyrido[2,3-e][1,2,4]triazolo[4,3-a]pyrazine] registered a half-inhibitory concentration (IC50) above 100 µM.

As for `Clc1cnc2nc(N3CCCNCC3)c3nncn3c2c1` [Compound 79, 8-Chloro-4-(1,4-diazepan-1-yl)pyrido[2,3-e][1,2,4]triazolo[4,3-a]pyrazine], the IC50 is above 100 µM.

As for `CN[C@@H]1CCN(c2nc3ncc(Br)cc3n3cnnc23)C1` [Compound 81, (R)-1-(8-bromopyrido[2,3-e][1,2,4]triazolo[4,3-a]pyrazin-4-yl)-N-methylpyrrolidin-3-amine], the 50% inhibitory concentration (IC50) was above 100 µM.

In turn, `Clc1cnc2nc(N3CC4CCCNC4C3)c3nncn3c2c1` (stereo not shown) [Compound 82, 8-Chloro-4-(hexahydro-1H-pyrrolo[3,4-b]pyridin-6(2H)-yl)pyrido[2,3-e][1,2,4]triazolo[4,3-a]pyrazine] had an IC50 above 100 µM.

Turning to `CN1CCCC2CN(c3nc4ncc(Cl)cc4n4cnnc34)CC21` (stereo not shown) [Compound 83, 8-Chloro-4-(1-methylhexahydro-1H-pyrrolo[3,4-b]pyridin-6(2H)-yl)pyrido[2,3-e][1,2,4]triazolo[4,3-a]pyrazine], the half-inhibitory concentration (IC50) is above 100 µM.

In the case of `CN(C)C1CN(c2nc3ncc(Cl)cc3n3cnnc23)C1` [Compound 84, 1-(8-Chloropyrido[2,3-e][1,2,4]triazolo[4,3-a]pyrazin-4-yl)-N,N-dimethylazetidin-3-amine], the IC50 was above 100 µM.

For `CN(C)C1CN(c2nc3ncc(Br)cc3n3cnnc23)C1` [Compound 85, 1-(8-Bromopyrido[2,3-e][1,2,4]triazolo[4,3-a]pyrazin-4-yl)-N,N-dimethylazetidin-3-amine], the IC50 is above 100 µM.

`OCCNc1nc2ncc(Cl)cc2n2cnnc12` [Compound 87, 2-((8-Chloropyrido[2,3-e][1,2,4]triazolo[4,3-a]pyrazin-4-yl)amino)ethanol] gave a 50% inhibitory concentration (IC50) above 100 µM.

In the case of `Cc1nc2c(N3CC(N(C)C(=O)OC(C)(C)C)C3)nc3ncc(Cl)cc3c2o1` [Compound 90, tert-Butyl (1-(8-chloro-2-methyloxazolo[4,5-c][1,8]naphthylidine-4-yl)azetidin-3-yl)(methyl)carbamate], the half-maximal inhibitory concentration (IC50) is above 100 µM.

`CNC1CN(c2nc3ncc(Cl)cc3n3nc(C)nc23)C1` [Compound 97, 1-(8-Chloro-2-methylpyrido[2,3-e][1,2,4]triazolo[1,5-a]pyrazin-4-yl)-N-methylazetidin-3-amine]: the IC50 came out at 87 µM.

In the case of `CNC1CN(c2nc3nc(C)c(Br)cc3n3cnnc23)C1` [Compound 99, 1-(8-bromo-7-methylpyrido[2,3-e][1,2,4]triazolo[4,3-a]pyrazin-4-yl)-N-methylazetidin-3-amine], the IC50 is above 100 µM.

The compound `CNC1CN(c2nc3nc(O)c(Cl)cc3n3cnnc23)C1` [Compound 101, 8-chloro-4-(3-(methylamino)azetidin-1-yl)pyrido[2,3-e][1,2,4]triazolo[4,3-a]pyrazin-7-ol HCl salt] came in with an IC50 above 100 µM.
